Assay results: PMC6383986, “Fragment-Based Covalent Ligand Screening Enables Rapid Discovery of Inhibitors for the RBR E3 Ubiquitin Ligase HOIP” (Journal of the American Chemical Society, 2019)
“Also recorded” adds a separate entry of the source.

Target: T1, HOIP RBR C885S (Homo sapiens, UniProt Q96EP0, C885S)
T1 construct: 697-1072; made in house; host or cells: E. coli BL21-GOLD(DE3)
Test: Protein LC-MS labeling of active-site mutant
Type: binding
Conditions: 200 μM compound (100-fold excess), 2 μM protein, 4 h
Procedure: negative control and compound solutions data points were acquired after 0.5, 4, and 24 h […]
Protocol as described above, using the HOIP RBR C885S mutant (155 µM stock solution in 50 mM HEPES, 150 mM NaCl, 1 mM DTT, pH 7.5) and 50 mM HEPES, 150 mM NaCl, pH 7.5 buffer.
The stock solution at 4 µM (25 µL per sample, final concentration 2 µM, 87 µg/mL), was mixed with buffer (24.5 µL) and compound (5) (0.5 µL of 2, and 20 mM stock solutions in DMSO, giving a final concentration of 20 and 200 µM respectively, and 1% DMSO). Data points were acquired after 0.5 and 4 h incubation.
The HOIP RBR domain wild type was diluted with 50 mM HEPES, 150 mM NaCl, pH 7.5 buffer to afford a new stock solution at 2.02 µM, which was aliquoted into 10 × 297 µL. […]
thawed individually and analyzed by protein mass spectrometry as described above. The total ion counts (TICs) detected for unlabelled HOIP and labelled HOIP-(5) conjugate within a peak elution range of 10 seconds were used to calculate the ratio of labelled HOIP RBR over total HOIP RBR content for each sample. The averaged data from 3 independent experiments were analyzed according to a two-step model of reversible ligand binding followed by irreversible covalent modification (Supplementary Figure S2A),11 fitted to a single exponential equation (equation 1, Supplementary Figure S2B) using GraFit (v.7). […]

T1 sequence (Q96EP0 697-1072 C885S): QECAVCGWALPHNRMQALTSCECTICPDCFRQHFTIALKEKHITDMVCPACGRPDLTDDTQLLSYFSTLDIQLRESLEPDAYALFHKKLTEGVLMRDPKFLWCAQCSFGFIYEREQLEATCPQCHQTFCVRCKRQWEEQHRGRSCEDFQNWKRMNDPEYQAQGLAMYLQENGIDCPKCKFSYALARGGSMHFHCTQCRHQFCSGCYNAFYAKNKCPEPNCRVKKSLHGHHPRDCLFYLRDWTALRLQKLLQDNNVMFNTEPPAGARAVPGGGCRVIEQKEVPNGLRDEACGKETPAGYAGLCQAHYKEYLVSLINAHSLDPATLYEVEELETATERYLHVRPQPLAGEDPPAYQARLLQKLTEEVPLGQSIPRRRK

COC(=O)/C=C/CNC(=O)c1cc2c([nH]c1=O)CCC2 [Compound 5]
labeling of HOIP RBR C885S: did not result in protein labeling; also recorded: not labeled
